Columns and labels:
[1] = Metabolic stability, rat liver microsome test; type: in vitro ADME; details: SD, liver microsomes, pH 7.4, 1 μM compound, 0.5 mg/mL protein, 37° C.; for half-life at 1 μM: read-out: rat liver microsome test t1/2(min)
Method: (§1) Microsome tests: human liver microsomes: 0.5 mg/mL, Xenotech; rat liver microsomes: 0.5 mg/mL, Xenotech; coenzyme (NADPH/NADH): 1 mM, Sigma Life Science; magnesium chloride: 5 mM, 100 mM phosphate buffer agent (pH 7.4).
(§2) Preparation of the stock solution: A certain amount of the powder of the example compounds was accurately weighed and dissolved to 5 mM with DMSO.
(§3) Preparation of phosphate buffer (100 mM, pH 7.4): 150 mL of pre-prepared 0.5 M potassium dihydrogen phosphate solution was mixed with 700 mL of pre-prepared 0.5 M dipotassium hydrogen phosphate solution, and the pH of the mixture was adjusted with 0.5 M dipotassium hydrogen phosphate solution to 7.4. It was diluted 5 times with ultrapure water before use, and magnesium chloride was added to obtain a phosphate buffer (100 mM) containing 100 mM potassium phosphate, 3.3 mM magnesium chloride, and a pH of 7.4.
(§4) A solution of NADPH regeneration system (containing 6.5 mM NADP, 16.5 mM G-6-P, 3 U/mL G-6-P D, 3.3 mM magnesium chloride) was prepared and placed on wet ice before use.
(§5) Preparation of stop solution: acetonitrile solution containing 50 ng/mL propranolol hydrochloride and 200 ng/mL tolbutamide (internal standard). 25057.5 μL of phosphate buffer (pH 7.4) was taken into a 50 mL centrifuge tube, 812.5 μL of human liver microsomes was added respectively, and mixed uniformly to obtain a liver microsome dilution with a protein concentration of 0.625 mg/mL. 25057.5 μL of phosphate buffer (pH 7.4) was taken into a 50 mL centrifuge tube, and 812.5 μL of SD rat liver microsomes was added respectively, and mixed uniformly to obtain a liver microsome dilution with a protein concentration of 0.625 mg/mL.
(§6) Incubation of the sample: The stock solutions of the corresponding compounds were diluted to 0.25 mM as working solutions with an aqueous solution containing 70% acetonitrile before use. 398 μL of human liver microsome or rat liver microsome dilutions were added to 96-well incubation plates (N=2), and 2 μL of 0.25 mM working solutions were added and mixed uniformly, respectively.
(§7) Determination of metabolic stability: 300 μL of pre-cooled stop solution was added to each well of a 96-well deep well plate, which was placed on ice as a stop plate. The 96-well incubation plate and the NADPH regeneration system were placed in a 37° C. water bath, shaken at 100 rpm, and pre-incubated for 5 min. 80 μL of the incubation solution was removed from each well of the incubation plate, added to the stop plate, and mixed uniformly, and 20 μL of the NADPH regeneration system solution was supplemented as a sample at 0 min. Then, 80 μL of the NADPH regeneration system solution was added to each well of the incubation plate to start the reaction and the timing was started. […] 100 μL of the reaction solution was removed at 10, 30, and 90 min of the reaction, respectively, and added to the stop plate, and the reaction was terminated by vortexing for 3 min. The stop plate was centrifuged at 5000×g for 10 min at 4° C. 100 μL of the supernatant was removed into a 96-well plate to which 100 μL of distilled water was previously added, mixed uniformly, and sample analysis was performed by LC-MS/MS.
(§8) Data analysis: The peak areas of the corresponding compounds and the internal standard were detected by LC-MS/MS system, and the ratios of the peak areas of the compounds to the internal standard were calculated.
(§9) The metabolic stability in human and rat liver microsomes was evaluated by simultaneously testing and comparing the compounds of the present invention and the compound without deuteration. The non-deuterated compound LOXO-195 was used as a control.

[2] = Metabolic stability, human liver microsome test; type: in vitro ADME; details: liver microsomes, pH 7.4, 1 μM compound, 0.5 mg/mL protein, 37° C.; for half-life at 1 μM: read-out: human liver microsome test t1/2(min)
Method: as §1, §2, §3, §4, §5, §6, §7, §8, §9

[3] = system: KM12 (TPM3-TRKA) cells; assay: Cytotoxicity test, inhibition of KM12 cell proliferation (CellTiter-Glo); type: cell-based; details: Homo sapiens, 72 h, 3 days incubation
Method: The inhibitory effect of the example compounds on the activity of KM12 (TPM3-TRKA) cells was examined.
Experimental methods: 1. Preparation of cell plates—KM12 cells were separately seeded in 96-well plates, and 8 ng/ml IL-3 was added to KM12 cells, and the cell plates were incubated in a carbon dioxide incubator overnight. 2. The test compound was dissolved in DMSO and subjected to a 3.16-fold gradient dilution with 9 compound concentrations in triplicate. 3. Compound Treatment of Cells—The compounds were transferred to cell plates at a starting concentration of 10 μM. The cell plates were incubated in a carbon dioxide incubator for 3 days. 4. Detection—The CellTiter-Glo reagent was added to the cell plate and incubated for 30 minutes at room temperature to stabilize the luminescence signal. Readings were performed using a PerkinElmer Envision multi-label analyzer.

| Structure (SMILES) | microsomal CLint at 1 μM [1] [µL/min/mg] | half-life at 1 μM [1] [min] | microsomal CLint at 1 μM [2] [µL/min/mg] | half-life at 1 μM [2] [min] | IC50 [3] [nM] |
| --- | --- | --- | --- | --- | --- |
| [2H]C1([2H])c2ncc(F)cc2[C@@H]2CCCN2c2ccn3ncc(c3n2)C(=O)N[C@H](C)C1([2H])[2H] [Compound L-1-b, (6S,15R)-9-fluoro-15-methyl-2,11,16,20,21,24-hexaazapentocyclo[16.5.2.0^2,6,0^7,12,0^21,25]pentacosane-1(24),7,9,11,18(25),19,22-heptaene-17-one-13,13,14,14-d4] | 75.1 | 18.5 | 49.8 | 27.8 | – |
| [2H]C1([2H])c2ncc(F)cc2[C@H]2CCCN2c2ccn3ncc(c3n2)C(=O)N[C@H](C)C1([2H])[2H] [Compound L-1-a, (6R,15R)-9-fluoro-15-methyl-2,11,16,20,21,24-hexaazapentocyclo[16.5.2.0^2,6,0^7,12,0^21,25]pentacosane-1(24),7,9,11,18(25),19,22-heptaene-17-one-13,13,14,14-d4] | 44.2 | 31.3 | 56.5 | 24.5 | – |
| [2H]C1([2H])CCN2c3ccn4ncc(c4n3)C(=O)N[C@H](C)CCc3ncc(F)cc3[C@@]21[2H] [Compound L-2-b, (6S,15R)-9-fluoro-15-methyl-2,11,16,20,21,24-hexaazapentocyclo[16.5.2.0^2,6,0^7,12,0^21,25]pentacosane-1(24),7,9,11,18(25),19,22-heptaene-17-one-5,5,6-d3] | 57.9 | 23.9 | 55.2 | 25.1 | – |
| C[C@@H]1CCc2ncc(F)cc2[C@@H]2CCCN2c2ccn3ncc(c3n2)C(=O)N1 [Φ-b, reference compound] | 79.2 | 17.5 | 78.4 | 17.7 | – |
| [2H]C([2H])([2H])C1([2H])CCc2ncc(F)cc2C2CCCN2c2ccn3ncc(c3n2)C(=O)N1 (racemic) [Compound 70, 9-fluoro-15-(methyl-d3)-2,11,16,20,21,24-hexaazapentocyclo[16.5.2.0^2,6,0^7,12,0^21,25]pentacosane-1(24),7,9,11,18(25),19,22-heptaene-17-one-15-d] | 35.5 | 39.1 | 78.7 | 17.6 | – |
| [2H]C1([2H])c2ncc(F)cc2C2CCCN2c2ccn3ncc(c3n2)C(=O)N[C@H](C)C1([2H])[2H] (stereo partly drawn) [Compound 13, (15R)-9-fluoro-15-methyl-2,11,16,20,21,24-hexaazapentocyclo[16.5.2.0^2,6,0^7,12,0^21,25]pentacosane-1(24),7,9,11,18(25),19,22-heptaene-17-one-13,13,14,14-d4] | 23.3 | 59.4 | 38.5 | 36 | – |
| C[C@@H]1CCc2ncc(F)cc2[C@H]2CCCN2c2ccn3ncc(c3n2)C(=O)N1 [Compound Φ-a, (6R,15R)-9-fluoro-15-methyl-2,11,16,20,21,24-hexaazapentocyclo[16.5.2.0^2,6,0^7,12,0^21,25]pentacosane-1(24),7,9,11,18(25),19,22-heptaene-17-one, reference compound] | 83.2 | 16.7 | 108 | 12.9 | 2.56 |
| [2H]C1([2H])CCN2c3ccn4ncc(c4n3)C(=O)N[C@H](C)CCc3ncc(F)cc3[C@]21[2H] [Compound L-2-a, (6R,15R)-9-fluoro-15-methyl-2,11,16,20,21,24-hexaazapentocyclo[16.5.2.0^2,6,0^7,12,0^21,25]pentacosane-1(24),7,9,11,18(25),19,22-heptaene-17-one-5,5,6-d3] | 45.6 | 30.4 | 79.6 | 17.4 | 2.51 |
| C[C@@H]1CCc2ncc(F)cc2C2CCCN2c2ccn3ncc(c3n2)C(=O)N1 (some centres unmarked) [Compound Φ, reference compound] | 59.5 | 23.3 | 94.3 | 14.7 | – |

— patent US11345703B2, “Substituted pyrazolo[1,5-a]pyrimidine macrocyclic compound” (SHENZHEN TARGETRX, INC., priority 2018, dated 2022)
